Experimental data: paper PMC9487510, “A Novel Oral GyrB/ParE Dual Binding Inhibitor Effective against Multidrug-Resistant Neisseria gonorrhoeae and Other High-Threat Pathogens” (Antimicrobial Agents and Chemotherapy, 2022)
In brackets after ≈: the same amount, converted by molar mass. Like-named read-outs stand apart in the source and are kept apart here.

Test system: N. gonorrhoeae clinical isolates
Assay: MIC, agar dilution (CLSI)
Format: cell-based, Neisseria gonorrhoeae
Conditions: for MIC: read-out: MIC

`CO/N=C(\C(=O)N[C@@H]1C(=O)N2C(C(=O)O)=C(CSc3nc(=O)c(=O)[nH]n3C)CS[C@H]12)c1csc(N)n1` [Cro, ceftriaxone] was tested, and the MIC range (96 clinical isolates) was under 0.002 to 0.125 µg/mL, the MIC (Neisseria gonorrhoeae, strain CDC1 (GCREF2012 016)) was 0.031 µg/mL (≈ 0.0559 µM) and the MIC (Neisseria gonorrhoeae, strain CDC2 (GCREF2012 045)) was 0.031 µg/mL (≈ 0.0559 µM). The MIC (Neisseria gonorrhoeae, strain CDC3 (GCREF2013 013)) was 0.031 µg/mL (≈ 0.0559 µM), the MIC (Neisseria gonorrhoeae, strain CDC4 (GCREF2013 030)) was 0.031 µg/mL (≈ 0.0559 µM) and the MIC (Neisseria gonorrhoeae, strain CDC5 (GCREF2012 001)) was 0.063 µg/mL (≈ 0.114 µM). The MIC (Neisseria gonorrhoeae, strain CDC6 (GCREF2012 002)) was 0.063 µg/mL (≈ 0.114 µM), the MIC (Neisseria gonorrhoeae, strain CDC8 (GCREF2012 004)) was 0.016 µg/mL (≈ 0.0289 µM) and the MIC (Neisseria gonorrhoeae, strain CDC9 (GCREF2012 005)) was 0.031 µg/mL (≈ 0.0559 µM). For the same compound, the MIC (Neisseria gonorrhoeae, strain CDC10 (GCREF2012 006)) was 0.031 µg/mL (≈ 0.0559 µM), the MIC (Neisseria gonorrhoeae, strain CDC11 (GCREF2012 007)) was 0.031 µg/mL (≈ 0.0559 µM) and the MIC (Neisseria gonorrhoeae, strain CDC12 (GCREF2012 008)) was 0.031 µg/mL (≈ 0.0559 µM). For the same compound, the MIC (Neisseria gonorrhoeae, strain CDC13 (GCREF2012 009)) was 0.031 µg/mL (≈ 0.0559 µM), the MIC (Neisseria gonorrhoeae, strain CDC14 (GCREF2012 010)) was 0.031 µg/mL (≈ 0.0559 µM) and the MIC (Neisseria gonorrhoeae, strain CDC15 (GCREF2012 011)) was 0.008 µg/mL (≈ 0.0144 µM). The MIC (Neisseria gonorrhoeae, strain CDC16 (GCREF2012 012)) was 0.063 µg/mL (≈ 0.114 µM), the MIC (Neisseria gonorrhoeae, strain CDC18 (GCREF2012 014)) was 0.063 µg/mL (≈ 0.114 µM) and the MIC (Neisseria gonorrhoeae, strain CDC19 (GCREF2012 015)) was 0.008 µg/mL (≈ 0.0144 µM). For the same compound, the MIC (Neisseria gonorrhoeae, strain CDC20 (GCREF2012 017)) was 0.063 µg/mL (≈ 0.114 µM), the MIC (Neisseria gonorrhoeae, strain CDC21 (GCREF2012 018)) was 0.031 µg/mL (≈ 0.0559 µM) and the MIC (Neisseria gonorrhoeae, strain CDC22 (GCREF2012 019)) was 0.008 µg/mL (≈ 0.0144 µM). For the same compound, the MIC (Neisseria gonorrhoeae, strain CDC23 (GCREF2012 020)) was 0.031 µg/mL (≈ 0.0559 µM), the MIC (Neisseria gonorrhoeae, strain CDC24 (GCREF2012 021)) was 0.063 µg/mL (≈ 0.114 µM) and the MIC (Neisseria gonorrhoeae, strain CDC25 (GCREF2012 022)) was 0.031 µg/mL (≈ 0.0559 µM). The MIC (Neisseria gonorrhoeae, strain CDC26 (GCREF2012 023)) was 0.031 µg/mL (≈ 0.0559 µM), the MIC (Neisseria gonorrhoeae, strain CDC27 (GCREF2012 024)) was 0.031 µg/mL (≈ 0.0559 µM) and the MIC (Neisseria gonorrhoeae, strain CDC28 (GCREF2012 025)) was 0.031 µg/mL (≈ 0.0559 µM). The MIC (Neisseria gonorrhoeae, strain CDC29 (GCREF2012 026)) was 0.016 µg/mL (≈ 0.0289 µM), the MIC (Neisseria gonorrhoeae, strain CDC30 (GCREF2012 027)) was 0.031 µg/mL (≈ 0.0559 µM) and the MIC (Neisseria gonorrhoeae, strain CDC31 (GCREF2012 028)) was 0.031 µg/mL (≈ 0.0559 µM). For the same compound, the MIC (Neisseria gonorrhoeae, strain CDC32 (GCREF2012 029)) was 0.063 µg/mL (≈ 0.114 µM), the MIC (Neisseria gonorrhoeae, strain CDC33 (GCREF2012 030)) was 0.125 µg/mL (≈ 0.225 µM) and the MIC (Neisseria gonorrhoeae, strain CDC34 (GCREF2012 031)) was 0.125 µg/mL (≈ 0.225 µM). For the same compound, the MIC (Neisseria gonorrhoeae, strain CDC35 (GCREF2012 032)) was 0.125 µg/mL (≈ 0.225 µM), the MIC (Neisseria gonorrhoeae, strain CDC36 (GCREF2012 033)) was 0.031 µg/mL (≈ 0.0559 µM) and the MIC (Neisseria gonorrhoeae, strain CDC37 (GCREF2012 034)) was 0.031 µg/mL (≈ 0.0559 µM). It also gave an MIC (Neisseria gonorrhoeae, strain CDC38 (GCREF2012 035)) of 0.031 µg/mL (≈ 0.0559 µM), an MIC (Neisseria gonorrhoeae, strain CDC39 (GCREF2012 036)) of 0.031 µg/mL (≈ 0.0559 µM) and an MIC (Neisseria gonorrhoeae, strain CDC40 (GCREF2012 037)) of 0.031 µg/mL (≈ 0.0559 µM). For the same compound, the MIC (Neisseria gonorrhoeae, strain CDC41 (GCREF2012 038)) was 0.031 µg/mL (≈ 0.0559 µM), the MIC (Neisseria gonorrhoeae, strain CDC42 (GCREF2012 039)) was 0.031 µg/mL (≈ 0.0559 µM) and the MIC (Neisseria gonorrhoeae, strain CDC43 (GCREF2012 040)) was 0.031 µg/mL (≈ 0.0559 µM). The MIC (Neisseria gonorrhoeae, strain CDC45 (GCREF2012 042)) was 0.125 µg/mL (≈ 0.225 µM), the MIC (Neisseria gonorrhoeae, strain CDC46 (GCREF2012 043)) was 0.031 µg/mL (≈ 0.0559 µM) and the MIC (Neisseria gonorrhoeae, strain CDC47 (GCREF2012 044)) was 0.031 µg/mL (≈ 0.0559 µM). It also gave an MIC (Neisseria gonorrhoeae, strain CDC48 (GCREF2012 046)) of 0.031 µg/mL (≈ 0.0559 µM), an MIC (Neisseria gonorrhoeae, strain CDC49 (GCREF2012 047)) of 0.031 µg/mL (≈ 0.0559 µM) and an MIC (Neisseria gonorrhoeae, strain CDC50 (GCREF2012 048)) of 0.063 µg/mL (≈ 0.114 µM). For the same compound, the MIC (Neisseria gonorrhoeae, strain CDC51 (GCREF2012 049)) was 0.008 µg/mL (≈ 0.0144 µM), the MIC (Neisseria gonorrhoeae, strain CDC52 (GCREF2012 050)) was 0.008 µg/mL (≈ 0.0144 µM) and the MIC (Neisseria gonorrhoeae, strain CDC53 (GCREF2012 051)) was 0.004 µg/mL (≈ 0.00721 µM). The MIC (Neisseria gonorrhoeae, strain CDC54 (GCREF2012 052)) was 0.004 µg/mL (≈ 0.00721 µM), the MIC (Neisseria gonorrhoeae, strain CDC55 (GCREF2013 001)) was 0.031 µg/mL (≈ 0.0559 µM) and the MIC (Neisseria gonorrhoeae, strain CDC56 (GCREF2013 002)) was 0.016 µg/mL (≈ 0.0289 µM). It also gave an MIC (Neisseria gonorrhoeae, strain CDC57 (GCREF2013 003)) of 0.004 µg/mL (≈ 0.00721 µM), an MIC (Neisseria gonorrhoeae, strain CDC58 (GCREF2013 004)) of 0.004 µg/mL (≈ 0.00721 µM) and an MIC (Neisseria gonorrhoeae, strain CDC59 (GCREF2013 044)) of 0.004 µg/mL (≈ 0.00721 µM). The MIC (Neisseria gonorrhoeae, strain CDC60 (GCREF2013 005)) was 0.031 µg/mL (≈ 0.0559 µM), the MIC (Neisseria gonorrhoeae, strain CDC61 (GCREF2013 006)) was 0.031 µg/mL (≈ 0.0559 µM) and the MIC (Neisseria gonorrhoeae, strain CDC62 (GCREF2013 007)) was 0.008 µg/mL (≈ 0.0144 µM). The MIC (Neisseria gonorrhoeae, strain CDC64 (GCREF2013 009)) was 0.008 µg/mL (≈ 0.0144 µM), the MIC (Neisseria gonorrhoeae, strain CDC65 (GCREF2013 010)) was 0.016 µg/mL (≈ 0.0289 µM) and the MIC (Neisseria gonorrhoeae, strain CDC66 (GCREF2013 011)) was 0.008 µg/mL (≈ 0.0144 µM). For the same compound, the MIC (Neisseria gonorrhoeae, strain CDC67 (GCREF2013 014)) was 0.008 µg/mL (≈ 0.0144 µM), the MIC (Neisseria gonorrhoeae, strain CDC68 (GCREF2013 016)) was 0.016 µg/mL (≈ 0.0289 µM) and the MIC (Neisseria gonorrhoeae, strain CDC69 (GCREF2013 017)) was 0.031 µg/mL (≈ 0.0559 µM). It also gave an MIC (Neisseria gonorrhoeae, strain CDC70 (GCREF2013 018)) of 0.004 µg/mL (≈ 0.00721 µM), an MIC (Neisseria gonorrhoeae, strain CDC71 (GCREF2013 019)) of 0.008 µg/mL (≈ 0.0144 µM) and an MIC (Neisseria gonorrhoeae, strain CDC72 (GCREF2013 020)) of 0.031 µg/mL (≈ 0.0559 µM). For the same compound, the MIC (Neisseria gonorrhoeae, strain CDC73 (GCREF2013 021)) was 0.008 µg/mL (≈ 0.0144 µM), the MIC (Neisseria gonorrhoeae, strain CDC74 (GCREF2013 022)) was 0.008 µg/mL (≈ 0.0144 µM) and the MIC (Neisseria gonorrhoeae, strain CDC75 (GCREF2013 023)) was 0.016 µg/mL (≈ 0.0289 µM). It also gave an MIC (Neisseria gonorrhoeae, strain CDC76 (GCREF2013 024)) of 0.016 µg/mL (≈ 0.0289 µM), an MIC (Neisseria gonorrhoeae, strain CDC77 (GCREF2013 025)) of 0.008 µg/mL (≈ 0.0144 µM) and an MIC (Neisseria gonorrhoeae, strain CDC78 (GCREF2013 026)) of 0.016 µg/mL (≈ 0.0289 µM). For the same compound, the MIC (Neisseria gonorrhoeae, strain CDC79 (GCREF2013 027)) was 0.016 µg/mL (≈ 0.0289 µM), the MIC (Neisseria gonorrhoeae, strain CDC80 (GCREF2013 028)) was 0.008 µg/mL (≈ 0.0144 µM) and the MIC (Neisseria gonorrhoeae, strain CDC81 (GCREF2013 029)) was 0.031 µg/mL (≈ 0.0559 µM). For the same compound, the MIC (Neisseria gonorrhoeae, strain CDC82 (GCREF2013 031)) was 0.031 µg/mL (≈ 0.0559 µM), the MIC (Neisseria gonorrhoeae, strain CDC83 (GCREF2013 032)) was 0.008 µg/mL (≈ 0.0144 µM) and the MIC (Neisseria gonorrhoeae, strain CDC84 (GCREF2013 033)) was 0.008 µg/mL (≈ 0.0144 µM). The MIC (Neisseria gonorrhoeae, strain CDC86 (GCREF2013 035)) was 0.008 µg/mL (≈ 0.0144 µM), the MIC (Neisseria gonorrhoeae, strain CDC87 (GCREF2013 036)) was 0.063 µg/mL (≈ 0.114 µM) and the MIC (Neisseria gonorrhoeae, strain CDC88 (GCREF2013 037)) was 0.031 µg/mL (≈ 0.0559 µM). It also gave an MIC (Neisseria gonorrhoeae, strain CDC89 (GCREF2013 038)) of 0.008 µg/mL (≈ 0.0144 µM), an MIC (Neisseria gonorrhoeae, strain CDC90 (GCREF2013 039)) of 0.031 µg/mL (≈ 0.0559 µM) and an MIC (Neisseria gonorrhoeae, strain CDC91 (GCREF2013 040)) of 0.125 µg/mL (≈ 0.225 µM). For the same compound, the MIC (Neisseria gonorrhoeae, strain CDC92 (GCREF2013 041)) was 0.031 µg/mL (≈ 0.0559 µM), the MIC (Neisseria gonorrhoeae, strain CDC93 (GCREF2013 042)) was 0.016 µg/mL (≈ 0.0289 µM) and the MIC (Neisseria gonorrhoeae, strain CDC94 (GCREF2013 043)) was 0.008 µg/mL (≈ 0.0144 µM). The MIC (Neisseria gonorrhoeae, strain CDC95 (GCREF2013 045)) was 0.031 µg/mL (≈ 0.0559 µM), the MIC (Neisseria gonorrhoeae, strain CDC96 (GCREF2013 046)) was 0.016 µg/mL (≈ 0.0289 µM) and the MIC (Neisseria gonorrhoeae, strain CDC97 (GCREF2013 047)) was 0.031 µg/mL (≈ 0.0559 µM). The MIC (Neisseria gonorrhoeae, strain CDC98 (GCREF2013 048)) was 0.008 µg/mL (≈ 0.0144 µM), the MIC (Neisseria gonorrhoeae, strain CDC99 (GCREF2013 012)) was 0.008 µg/mL (≈ 0.0144 µM) and the MIC (Neisseria gonorrhoeae, strain CDC100 (GCREF2013 015)) was 0.031 µg/mL (≈ 0.0559 µM). It also gave an MIC50 (Neisseria gonorrhoeae, 96 clinical isolates, read-out: MIC50) of 0.031 µg/mL (≈ 0.0559 µM) and an MIC90 (Neisseria gonorrhoeae, 96 clinical isolates, read-out: MIC90) of 0.063 µg/mL (≈ 0.114 µM).
